According to patent publication US8716242B2, “β-hairpin peptidomimetics” (priority 2009, dated 2014):
Numbered stars: 1 amine (or outer) side, 2 acyl side, 3 side chain; on linkers, the order of the positions; unused ones are H or OH. Bridge positions count the residues as written; N and C are the ends. Square brackets hold non-standard residues; d marks the D form. Side chains are listed from the residue outwards. Peptide text beside a SMILES is read from it. * marks the point of attachment. γGlu = O=C(O)[C@H](CCC(=O)[*:2])N[*:1]; Palmitoyl = CCCCCCCCCCCCCCCC(=O)*; Myristoyl = CCCCCCCCCCCCCC(=O)*; Lauroyl = CCCCCCCCCCCC(=O)*; Dab = NCC[C@H](N)C(=O)O

Legend:
[1] = Plasma stability in mouse plasma; assay type: in vitro ADME; settings: mouse plasma, 37° C.; for remaining at 24 h, 10 μM: 1440 min, read-out: mouse pl. cpd left at 1440 min
Summary of the method: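 Peptides (1 mM DMSO/H2O stock) were spiked into human or mouse plasma in triplicate and incubated at 37 °C, sampling from 0 to 1440 min. Samples were quenched in formic acid/acetonitrile and analysed by LC/MS MRM. Remaining percent of t=0 was calculated and T1/2 derived by trend fitting.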

in vivo = experiment: in vivo; parameters: species or system male CD-1 mice; settings: for bioavailability / AUC(0-inf) / Cmax / Tmax / half-life / level at 0.083 h / level at 0.25 h / level at 0.5 h / level at 1 h / level at 2 h / level at 4 h / level at 8 h / level at 12 h / level at 24 h: male, CD-1, mouse; for AUC0-∞ dcor. / Cmax dcor.: mouse
Description: 2.7. Pharmacokinetic Study (PK)
Pharmacokinetic study after intravenous (i.v.) and subcutaneous (s.c.) administration was performed for the compounds of Ex. 17, Ex. 20, Ex. 25, Ex. 26, Ex. 28, and Ex. 29. […] The compounds of Ex. 17, Ex. 25, Ex. 26, Ex. 28, and Ex. 29 were administered i.v. and s.c. as a cassette whereas for the compound of Ex. 20a single i.v. and s.c. administration was accomplished.
30 grams (±20%) male CD-1 mice obtained from Janvier, France, were used in the study testing the cassette compounds. The vehicle, phosphate buffered saline containing 5% DMSO, was added to give a final concentration of 0.5 mg/mL of the compounds (i.v. route and s.c. route). The volume was 2 mL/kg i.v. and 10 mL/kg s.c. and the cassette compounds were injected to give a final intravenous dose of 1 mg/kg and an subcutaneous dose of 5 mg/kg. Approximately 500 μL of blood were removed from the opened heart at predetermined time intervals (5, 15, 30 min and 1, 2, 4, 8 and 12 hours for the i.v. study and 5, 15, 30 min and 1, 2, 4, 8, 12 and 24 hours for the s.c. study) and added to heparinized tubes. Plasma was removed from pelleted cells upon centrifugation and frozen at −80° C. prior to HPLC-MS analysis. For the compound of Ex. 20 30 grams (±20%) male CD-1 mice obtained from Charles River Laboratories Deutschland GmbH were used. The vehicle, phosphate buffered saline, was added to give a final concentration of 0.2 mg/mL of the compound (i.v. route) and 1 mg/mL (s.c. route). The volume was 5 mL/kg i.v. and s.c. and the compound was injected to give a final intravenous dose of 1 mg/kg and an subcutaneous dose of 5 mg/kg. Approximately 300-400 μL of blood was removed under light isoflurane anesthesia by cardiac puncture at predetermined time intervals (5, 15, 30 min and 1, 2, 3, 4, 6, 12 hours for the i.v. study and 15, min and 1, 2, 4, 6, 8, 12 and 24 hours for the s.c. study) and added to heparinized tubes. Plasma was removed from pelleted cells upon centrifugation and frozen at −80° C. prior to HPLC-MS analysis.
Preparation of the Plasma Calibration Samples
“Blank” mouse plasma from untreated animals was used. Aliquots of plasma of 0.2 mL each were spiked with 50 ng of propranolol (Internal Standard, IS), (sample preparation by solid phase extraction on OASIS® HLB cartridges [Waters]) and with known amounts of Ex. 20 in order to obtain 9 plasma calibration samples in the range 10-5000 nM. The OASIS® HLB cartridges were conditioned with 1 mL of methanol and then with 1 mL of 1% NH3 in water. Samples were then diluted with 700 μL of 1% NH3 in water and loaded. The plate was washed with 1 mL of methanol/1% NH3 in water 5/95 (v/v). Elution was performed using 1 mL of 0.1% TFA in methanol.
The plate containing eluates was introduced into the concentrator system and taken to dryness. The residues were dissolved in 100 μL of formic acid 0.1%/acetonitrile, 95/5 (v/v) and analysed in the HPLC/MS on a reverse phase analytical column (Jupiter C18, 50×2.0 mm, 5 μm, Phenomenex), using gradient elution (mobile phases A: 0.1% formic acid in water, B: acetonitrile; from 5% B to 100% B in 2 min.).
Preparation of Plasma Samples
Samples coming from animal treatments were pooled in order to obtain an appropriate volume for the extraction. If the total volume obtained was less than 0.2 mL the appropriate amount of “blank” mouse plasma was added in order to keep the matrix identical to the calibration curve. Samples were than spiked with IS and processed as described for the calibration curve.
Pharmacokinetic Evaluation
In order to perform PK analysis pooled plasma data (n=3 mice) was used. PK parameters were calculated by WinNonLin™ software version 5.2.1 (Pharsight—A Certara™ Company, Mountain View, Calif. 94041 USA) using non-compartmental analysis with a linear up/log down trapezoidal calculation method. For the terminal elimination phase at least 3 time points and a correlation coefficient greater than 0.85 was used. […]

Row | SMILES | remaining at 24 h, 10 μM [1] [%] | bioavailability (in vivo) [%] | AUC(0-inf) (in vivo; iv, 1 mg/kg) [ng·h/mL] | Cmax (in vivo; iv, 1 mg/kg) [ng/mL] | Tmax (in vivo; iv, 1 mg/kg) [h] | half-life (in vivo; iv, 1 mg/kg) [h] | level at 0.083 h (in vivo; iv, 1 mg/kg) [ng/mL] | level at 0.25 h (in vivo; iv, 1 mg/kg) [ng/mL] | level at 0.5 h (in vivo; iv, 1 mg/kg) [ng/mL] | level at 1 h (in vivo; iv, 1 mg/kg) [ng/mL] | level at 2 h (in vivo; iv, 1 mg/kg) [ng/mL] | level at 4 h (in vivo; iv, 1 mg/kg) [ng/mL] | level at 8 h (in vivo; iv, 1 mg/kg) [ng/mL] | level at 12 h (in vivo; iv, 1 mg/kg) [ng/mL] | AUC(0-inf) (in vivo; sc, 5 mg/kg) [ng·h/mL] | Cmax (in vivo; sc, 5 mg/kg) [ng/mL] | Tmax (in vivo; sc, 5 mg/kg) [h] | half-life (in vivo; sc, 5 mg/kg) [h] | level at 0.25 h (in vivo; sc, 5 mg/kg) [ng/mL] | level at 0.5 h (in vivo; sc, 5 mg/kg) [ng/mL] | also measured
1 | CCCCCCCCCCCCCC(=O)N[C@@H](CCC(=O)NCCCC[C@@H]1NC(=O)[C@H](Cc2ccc(O)cc2)NC(=O)[C@@H]2CSSC[C@H](NC(=O)[C@H](Cc3ccc(O)cc3)NC(=O)[C@H](Cc3c[nH]cn3)NC(=O)[C@H](Cc3ccc(O)cc3)NC(=O)[C@@H]3CCCN3C(=O)[C@H]3CCCN3C(=O)[C@H](CCCCN)NC1=O)C(=O)N[C@@H](CO)C(=O)N[C@@H](C)C(=O)N1CCC[C@@H]1C(=O)N[C@@H](CCN)C(=O)N[C@@H](CCCNC(=N)N)C(=O)N[C@@H](Cc1ccc(O)cc1)C(=O)N2)C(=O)O [Ex. 28] (cyclo(YHYCSA[dP][Dab]RYCYK([γGlu-Myristoyl])K[dP]P); disulfide 4-11) | 78 | 150 | 3430 | 2820 | 0.1 | 3.2 | 2820 | 2120 | 2030 | 1670 | 114 | 148 | 34 | 17 | 25700 | 1900 | 8 | 4.3 | 16 | 73 | mouse pl. T1/2 ([1]; up to 1440 min): 24 h; level at 1 h (in vivo; sc, 5 mg/kg): 232 ng/mL; level at 2 h (in vivo; sc, 5 mg/kg): 1520 ng/mL; level at 4 h (in vivo; sc, 5 mg/kg): 1270 ng/mL; level at 8 h (in vivo; sc, 5 mg/kg): 1900 ng/mL; level at 12 h (in vivo; sc, 5 mg/kg): 1610 ng/mL; level at 24 h (in vivo; sc, 5 mg/kg): 164 ng/mL; AUC0-∞ dcor. (in vivo; iv, 1 mg/kg): 3430.8 kg·ng·h/mg/mL; Cmax dcor. (in vivo; iv, 1 mg/kg): 2817.0 kg·ng/mg/mL; AUC0-∞ dcor. (in vivo; sc, 5 mg/kg): 5137.4 kg·ng·h/mg/mL; Cmax dcor. (in vivo; sc, 5 mg/kg): 380.0 kg·ng/mg/mL
2 | CCCCCCCCCCCCCCCC(=O)N[C@@H](CCC(=O)NCCCC[C@@H]1NC(=O)[C@H](Cc2ccc(O)cc2)NC(=O)[C@@H]2CSSC[C@H](NC(=O)[C@H](Cc3ccc(O)cc3)NC(=O)[C@H](Cc3c[nH]cn3)NC(=O)[C@H](Cc3ccc(O)cc3)NC(=O)[C@@H]3CCCN3C(=O)[C@H]3CCCN3C(=O)[C@H](CCCCN)NC1=O)C(=O)N[C@@H](CO)C(=O)N[C@@H](C)C(=O)N1CCC[C@@H]1C(=O)N[C@@H](CCN)C(=O)N[C@@H](CCCNC(=N)N)C(=O)N[C@@H](Cc1ccc(O)cc1)C(=O)N2)C(=O)O [Ex. 29] (cyclo(YHYCSA[dP][Dab]RYCYK([γGlu-Palmitoyl])K[dP]P); disulfide 4-11) | 53 | 151 | 2940 | 2320 | 0.1 | 3.6 | 2320 | 1820 | 1730 | 1500 | 87 | 114 | 35 | 16 | 22200 | 1600 | 8 | 4.7 | 9 | 41 | mouse pl. T1/2 ([1]; up to 1440 min): 24 h; level at 1 h (in vivo; sc, 5 mg/kg): 137 ng/mL; level at 2 h (in vivo; sc, 5 mg/kg): 1050 ng/mL; level at 4 h (in vivo; sc, 5 mg/kg): 958 ng/mL; level at 8 h (in vivo; sc, 5 mg/kg): 1600 ng/mL; level at 12 h (in vivo; sc, 5 mg/kg): 1430 ng/mL; level at 24 h (in vivo; sc, 5 mg/kg): 175 ng/mL; AUC0-∞ dcor. (in vivo; iv, 1 mg/kg): 2945.0 kg·ng·h/mg/mL; Cmax dcor. (in vivo; iv, 1 mg/kg): 2317.0 kg·ng/mg/mL; AUC0-∞ dcor. (in vivo; sc, 5 mg/kg): 4436.2 kg·ng·h/mg/mL; Cmax dcor. (in vivo; sc, 5 mg/kg): 320.6 kg·ng/mg/mL
3 | CCCCCCCCCCCC(=O)NCCCC[C@@H]1NC(=O)[C@H](Cc2ccc(O)cc2)NC(=O)[C@@H]2CSSC[C@H](NC(=O)[C@H](C)NC(=O)[C@H](Cc3c[nH]cn3)NC(=O)[C@H](Cc3ccc(O)cc3)NC(=O)[C@@H]3CCCN3C(=O)[C@H]3CCCN3C(=O)[C@H](CCCCN)NC1=O)C(=O)N[C@@H](CCCNC(=N)N)C(=O)N[C@@H](C)C(=O)N1CCC[C@@H]1C(=O)N[C@@H](CCN)C(=O)N[C@@H](CCCNC(=N)N)C(=O)N[C@@H](Cc1ccc(O)cc1)C(=O)N2 [Ex. 17] (cyclo(YHACRA[dP][Dab]RYCYK(Lauroyl)K[dP]P); disulfide 4-11) | 59 | 114 | 2950 | 2640 | 0.1 | 2 | 2640 | 2030 | 1560 | 1290 | 178 | 141 | 15 | 8 | 16800 | 1750 | 2 | 4.3 | 140 | 450 | half-life at 10 μM ([1]; up to 1440 min, read-out: mouse pl. T1/2): 19.5 h; level at 1 h (in vivo; sc, 5 mg/kg): 874 ng/mL; level at 2 h (in vivo; sc, 5 mg/kg): 1750 ng/mL; level at 4 h (in vivo; sc, 5 mg/kg): 1410 ng/mL; level at 8 h (in vivo; sc, 5 mg/kg): 1240 ng/mL; level at 12 h (in vivo; sc, 5 mg/kg): 567 ng/mL; level at 24 h (in vivo; sc, 5 mg/kg): 65 ng/mL; AUC0-∞ dcor. (in vivo; iv, 1 mg/kg): 2950.8 kg·ng·h/mg/mL; Cmax dcor. (in vivo; iv, 1 mg/kg): 2640.0 kg·ng/mg/mL; AUC0-∞ dcor. (in vivo; sc, 5 mg/kg): 3357.9 kg·ng·h/mg/mL; Cmax dcor. (in vivo; sc, 5 mg/kg): 350.6 kg·ng/mg/mL
